The source made the active and inactive calls. The rule behind the calls is not given here.
Assays:
[1] = Toxicity in female BALB/cA nude mouse assessed as mortality at 38 mg/kg, iv administered twice per week measured after 107 days; format: organism-based; settings: in vivo, 2568 h, time 107 day
[2] = Toxicity in female BALB/cA nude mouse assessed as appearance of inflammatory lesions in tumor at 38 mg/kg, iv administered once a week for 35 days by H and E staining based analysis; format: organism-based; settings: in vivo, 840 h, time 35 day
[3] = Toxicity in female BALB/cA nude mouse assessed as appearance of inflammatory lesions in liver at 38 mg/kg, iv administered once a week for 35 days by H and E staining based analysis; format: organism-based; settings: in vivo, 840 h, time 35 day
[4] = Toxicity in female BALB/cA nude mouse assessed as necrosis in tumor tissue at 38 mg/kg, iv measured after 24 hrs by H and E staining based analysis; format: organism-based; settings: in vivo
[5] = Half life in female BALB/c mouse at 38 mg/kg measured up to 168 hrs by HPLC analysis; format: ADME, organism-based; settings: in vivo
[6] = Toxicity in female BALB/cA nude mouse assessed as fibrotic changes in spleen at 38 mg/kg, iv administered once a week for 35 days by H and E staining based analysis; format: organism-based; settings: in vivo, 840 h, time 35 day
HCT-116 [7] = assay: Antitumor activity against human HCT-116 cells xenografted in female BALB/cA nude mouse model assessed as relative tumor proliferation rate at 38 mg/kg, iv administered twice per week measured after 107 days; format: functional, organism-based; settings: time 107.0 day
[8] = Toxicity in female BALB/cA nude mouse assessed as fibrotic changes in kidney at 38 mg/kg, iv administered once a week for 35 days by H and E staining based analysis; format: organism-based; settings: in vivo, 840 h, time 35 day
[9] = Toxicity in female BALB/cA nude mouse assessed as animal fatality at 38 mg/kg, iv administered once a week for 35 days; format: organism-based; settings: in vivo, 840 h, time 35 day
[10] = Toxicity in female BALB/cA nude mouse assessed as appearance of inflammatory lesions in spleen at 38 mg/kg, iv administered once a week for 35 days by H and E staining based analysis; format: organism-based; settings: in vivo, 840 h, time 35 day
HCT-116 [11] = assay: Antitumor activity against human HCT-116 cells xenografted in female BALB/cA nude mouse model assessed as relative tumor proliferation rate at 38 mg/kg, iv administered twice per week measured after 24 days relative to control; format: functional; settings: time 24 day
[12] = Cmax in female BALB/c mouse at 38 mg/kg measured up to 168 hrs by HPLC analysis; format: ADME, organism-based; settings: in vivo
BXPC-3 = assay: Antitumor activity against human BXPC-3 cells xenografted in female BALB/cA nude mouse model assessed as suppression of tumor growth by measuring relative tumor proliferation rate at 38 mg/kg, iv measured after 17 days relative to control; format: functional; settings: time 17 day
[13] = Toxicity in female BALB/cA nude mouse assessed as appearance of fibrosis in heart at 38 mg/kg, iv measured after 24 hrs by H and E staining based analysis; format: organism-based; settings: in vivo
[14] = Clearance in female BALB/c mouse at 38 mg/kg measured up to 168 hrs by HPLC analysis; format: ADME, organism-based; settings: in vivo
[15] = Toxicity in female BALB/cA nude mouse assessed as fibrotic changes in tumor at 38 mg/kg, iv administered once a week for 35 days by H and E staining based analysis; format: organism-based; settings: in vivo, 840 h, time 35 day
[16] = Volume of distribution in female BALB/c mouse at 38 mg/kg measured up to 168 hrs by HPLC analysis; format: ADME, organism-based; settings: in vivo
[17] = AUC (0 to t) in female BALB/c mouse at 38 mg/kg measured up to 168 hrs by HPLC analysis; format: ADME, organism-based; settings: in vivo
[18] = Toxicity in female BALB/cA nude mouse assessed as appearance of inflammatory lesions in kidney at 38 mg/kg, iv administered once a week for 35 days by H and E staining based analysis; format: organism-based; settings: in vivo, 840 h, time 35 day
[19] = Toxicity in female BALB/cA nude mouse assessed as fibrotic changes in tumor at 25 mg/kg, iv administered once a week for 35 days by H and E staining based analysis; format: organism-based; settings: in vivo, 840 h, time 35 day
HCT-116 [20] = assay: Antitumor activity against human HCT-116 cells xenografted in female BALB/cA nude mouse model assessed as tumor shrinkage by measuring relative tumor proliferation rate at 25 mg/kg,iv administered twice per week and measured after 24 days relative to control; format: functional; settings: time 24 day
[21] = Toxicity in female BALB/cA nude mouse assessed as appearance of inflammatory lesions in heart at 25 mg/kg, iv administered once a week for 35 days by H and E staining based analysis; format: organism-based; settings: in vivo, 840 h, time 35 day
[22] = Toxicity in female BALB/cA nude mouse assessed as necrosis in tumor tissue at 25 mg/kg, iv measured after 24 hrs by H and E staining based analysis; format: organism-based; settings: in vivo
HCT-116 [23] = assay: Antitumor activity against human HCT-116 cells xenografted in female BALB/cA nude mouse model assessed as tumor shrinkage at 25 mg/kg, iv administered twice per week measured after 65 days relative to control; format: functional; settings: time 65 day
[24] = Toxicity in female BALB/cA nude mouse assessed as appearance of inflammatory lesions in tumor at 25 mg/kg, iv administered once a week for 35 days by H and E staining based analysis; format: organism-based; settings: in vivo, 840 h, time 35 day
[25] = Cmax in female BALB/c mouse at 25 mg/kg measured up to 120 hrs by HPLC analysis; format: ADME, organism-based; settings: in vivo
[26] = Toxicity in female BALB/cA nude mouse assessed as fibrotic changes in lung at 25 mg/kg, iv administered once a week for 35 days by H and E staining based analysis; format: organism-based; settings: in vivo, 840 h, time 35 day
[27] = Toxicity in female BALB/cA nude mouse assessed as appearance of inflammatory lesions in liver at 25 mg/kg, iv administered once a week for 35 days by H and E staining based analysis; format: organism-based; settings: in vivo, 840 h, time 35 day
[28] = Toxicity in female BALB/cA nude mouse assessed as appearance of inflammatory lesions in kidney at 25 mg/kg, iv administered once a week for 35 days by H and E staining based analysis; format: organism-based; settings: in vivo, 840 h, time 35 day
[29] = Toxicity in female BALB/cA nude mouse assessed as appearance of inflammatory lesions in lung at 25 mg/kg, iv administered once a week for 35 days by H and E staining based analysis; format: organism-based; settings: in vivo, 840 h, time 35 day
[30] = Volume of distribution in female BALB/c mouse at 25 mg/kg measured up to 120 hrs by HPLC analysis; format: ADME, organism-based; settings: in vivo
[31] = Prodrug release in female BALB/c nude mouse tumor assessed as (S)-4,11-diethyl-4,9-dihydroxy-1,12-dihydro-14H-pyrano[3',4':6,7]indolizino[1,2-b]quinoline-3,14(4H)-dione accumulation at 25 mg/kg measured after 12 hr by HPLC analysis; format: ADME, organism-based, Neoplasm; settings: in vivo
[32] = Toxicity in female BALB/cA nude mouse assessed as inflammatory response in liver at 25 mg/kg, iv measured after 24 hrs by H and E staining based analysis; format: organism-based; settings: in vivo
[33] = Toxicity in female BALB/cA nude mouse assessed as animal fatality at 25 mg/kg, iv administered once a week for 35 days; format: organism-based; settings: in vivo, 840 h, time 35 day
[34] = Toxicity in female BALB/cA nude mouse assessed as fibrotic changes in liver at 25 mg/kg, iv administered once a week for 35 days by H and E staining based analysis; format: organism-based; settings: in vivo, 840 h, time 35 day
[35] = Toxicity in female BALB/cA nude mouse assessed as appearance of inflammatory lesions in spleen at 25 mg/kg, iv administered once a week for 35 days by H and E staining based analysis; format: organism-based; settings: in vivo, 840 h, time 35 day

CCc1c2c(nc3ccc(OCc4ccc(O[C@@H]5O[C@H](C(=O)O)[C@@H](O)[C@H](O)[C@H]5O)c(NC(=O)CCNC(=O)COCCOCCNC(=O)COCCOCCNC(=O)CC[C@H](NC(=O)CCCCCCCCCCCCCCCCC(=O)O)C(=O)O)c4)cc13)-c1cc3c(c(=O)n1C2)COC(=O)[C@]3(O)CC
Activity [1]: Non-toxic
Activity [2]: Non-toxic
Activity [3]: Non-toxic
Activity [4]: Toxic
half-life [5]: 3.65 h
Activity [6]: Non-toxic
Activity (HCT-116 [7]): inactive
Activity [8]: Non-toxic
Activity [9]: Non-toxic
Activity [10]: Non-toxic
Activity (HCT-116 [11]): 10.59%
Cmax [12]: 112 µg/mL
Activity (BXPC-3): 34.39%
Activity [13]: Toxic
clearance [14]: 0.753 mL/min/kg
Activity [15]: Non-toxic
Vd [16]: 0.24 L/kg
AUC(0-t) at 168 h [17]: 837 µg·h/mL
Activity [18]: Non-toxic

CCc1c2c(nc3ccc(OCc4ccc(O[C@@H]5O[C@H](C(=O)O)[C@@H](O)[C@H](O)[C@H]5O)c(NC(=O)CCNC(=O)CCCCCN5C(=O)C=CC5=O)c4)cc13)-c1cc3c(c(=O)n1C2)COC(=O)[C@]3(O)CC
Activity [19]: Non-toxic
Activity (HCT-116 [20]): 4.6%
Activity [21]: Non-toxic
Activity [22]: Toxic
Activity (HCT-116 [23]): 100%
Activity [24]: Non-toxic
Cmax [25]: 50.7 µg/mL
Activity [26]: Non-toxic
Activity [27]: Non-toxic
Activity [28]: Non-toxic
Activity [29]: Non-toxic
Vd [30]: 0.61 L/kg
Drug metabolism [31]: 0.725 % ID/g
Activity [32]: Toxic
Activity [33]: Non-toxic
Activity [34]: Non-toxic
Activity [35]: Non-toxic
